Data set [1] deals with T1, rat M5 (Rattus norvegicus, UniProt P08911).
T1 sequence (P08911 1-531): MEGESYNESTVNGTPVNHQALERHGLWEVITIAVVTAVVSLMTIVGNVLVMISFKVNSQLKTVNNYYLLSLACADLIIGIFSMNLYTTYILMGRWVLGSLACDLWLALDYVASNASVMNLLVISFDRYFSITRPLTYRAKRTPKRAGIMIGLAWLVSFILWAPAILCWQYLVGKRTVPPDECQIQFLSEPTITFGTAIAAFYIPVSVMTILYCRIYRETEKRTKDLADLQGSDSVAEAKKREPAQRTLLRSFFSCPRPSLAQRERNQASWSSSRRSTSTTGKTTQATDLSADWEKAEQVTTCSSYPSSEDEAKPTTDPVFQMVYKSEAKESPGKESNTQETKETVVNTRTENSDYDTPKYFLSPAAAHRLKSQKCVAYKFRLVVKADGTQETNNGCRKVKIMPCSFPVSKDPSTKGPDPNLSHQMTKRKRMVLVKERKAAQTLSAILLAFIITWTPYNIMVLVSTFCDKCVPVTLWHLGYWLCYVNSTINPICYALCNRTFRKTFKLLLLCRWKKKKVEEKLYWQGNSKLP
The data set is described as follows: rat M5 intracellular calcium mobilization assay. The format is cell-based. For orientation: Calcium assays in cells follow changes in intracellular calcium, usually with a dye or a luminescent sensor.

For data set [2] the following is noted: cited from earlier work.
The conditions of data set [3]: rat; cited from earlier work.

Bounds are passed on as bounds.

With `O=C(c1ccc(F)c(F)c1)N1CCN2C(=O)c3ccccc3[C@@]12c1ccc(N2CCCC(F)(F)C2)cc1` [4d], in data set [1], the “rat M5 potency relative to hM5” value was no more than 2 fold.
On the same count and under the same terms, the result for `O=C(c1ccc(F)c(F)c1)N1CCN2C(=O)c3ccccc3[C@@]12c1ccc(N2CCC(F)(F)CC2)cc1` [4f] reads no more than 2 fold.
As for `O=C(c1ccc(F)c(F)c1)N1CCN2C(=O)c3ccccc3[C@@]12c1ccc(Cl)cc1` [compound 1], in data set [2] (rat), the “elimination half-life t1/2” value is 80 h.
As for `COc1ccc([C@@]23c4ccccc4C(=O)N2CCN3C(=O)c2cc(F)c(F)c(F)c2)cc1C` [compound 2], the CLp in data set [2] (rat PK) is on record as greater than 70 mL/min/kg. In data set [3], the CNS penetration result is “limited CNS penetration”.

Source of the values: article PMC5508536 (Bioorganic & medicinal chemistry letters, 2017).
